# Measurements published in patent US20120083473A1, “TREATMENT OF CONDITIONS BY TOLL-LIKE RECEPTOR MODULATORS” (priority 2010, published 2012).
# Experiments:
# [1] = tested on: murine peritoneal macrophages (PEC); experiment: Cross-tolerance toward TLR ligands and pro-inflammatory cytokines in PEC (gene expression); format: cell-based, mice
# Protocol: In addition, tolerance is tested also in response to primary cytokines IL-1-beta and TNFalpha. This approach clarifies whether the TLR7 partial agonist compound 2 of Table 2 promotes cross-tolerance of different members of the TLR family, as well as of the IL-1 and TNF receptor systems, which has been regularly reported.
# A second group of experiments was performed to evaluate the capacity of TMX to promote cross tolerance toward several TLR ligands and pro-inflammatory cytokines. PECs maintained in medium or pre-treated for 20 hours with 10 μM or 1 μM of TMX and re-challenged with several TLR agonists or pro-inflammatory cytokines were analyzed for the expression of selected M1 and M2 genes.
# (§1) Cell Culture and treatments. Peritoneal exudate cells (PEC) were harvested from mice injected with 1 ml of 3% (w/v) thioglycollate medium (Difco, Detroit, Mich.) 4 days prior to isolation. PECs were incubated in RPMI 1640 medium, containing 10% fetal bovine serum, 2 mM glutamine and 100 U/ml of penicillin-streptomycin. The concentration for the different treatments were as follows: LPS (100 ng/ml) (Lipopolysaccharide from Salmonella Abortus Equi S-form, Alexis), CpG (1 μg/ml), Pam3CSK (2 μg/ml), Poly I:C (10 μg/ml), Loxorubine (100 μM), flagellin (100 ng/ml) IL-1β (20 ng/ml), TNF (20 ng/ml), IL-10 (20 ng/ml) (Peprotech), IFNγ (200 U/ml) (Peprotech). To induce TMX tolerance, cells were incubated in the presence of TMX (10 μM or 1 μM) for 20 hrs, washed and maintained in RPMI medium for 2 hrs and then re-challenged with TMX (10 μM) for 4 hrs. To induce TMX-tolerization (T/M) cells were treated with TMX for 20 hrs, washed and then maintained in medium for additional 6 hours, without TMX re-challenge. To induce M1-activation, cells were incubated in medium for 20 hrs, washed, left in medium for 2 hrs and finally stimulated with TMX (10 μM) for 4 hrs. Control cells (M/M) were cultured in medium for the entire period of the experiment. For gene expression analysis, total RNA was extracted from TMX treated and untreated cells with trizol (Invitrogen), according to the manufacturer's instructions. To analyze cytokines and chemokines production supernatants were collected 24 hrs after the second challenge with TMX.
# Real-Time PCR. Total RNA was purified as previously described. Briefly, reverse transcription from 1 μg of RNA was performed using cDNA Archive kit (Applied Biosystem, NJ, USA). Real time PCR was performed using Power Syber Green PCR Master Mix (Applied Biosystem, NJ, USA) and detected by 7900HT Fast Real-Time System (Applied Biosystem, NJ, USA). […] Results were normalized to the expression of the housekeeping gene β-actin and then expressed as folds of upregulation, with respect to the control cell population.
# [2] = tested on: Bleomycin-induced fibrosis in C57BU6 mice; experiment: Bleomycin-induced lung fibrosis in mice; format: in vivo; details: 500 nmol/animal s.c. daily; day 7 and day 21; ELISA
# Protocol: The efficacy of Compound 2 on mouse models of idiopathic lung fibrosis was studied as follows. Lung fibrosis was induced in 6-8 week old female C57BU6 mice. 0.8 U/kg of bleomycin (Hospira, Inc., Lake Forest, Ill.) was administered by intratracheal (i.t.) instillation on day 0. Bleomycin treated C57BU6 mice were divided into four groups (n 7 per group). Groups 2 and 4 were subcutaneously treated with Compound 2 at daily dose of 500 nmol/animal. Groups 1 and 3 were treated with saline control. Groups 1 and 2 were sacrificed on day 7 and groups 3 and 4 were sacrificed on day 21.
# Measurements: Lung inflammation and fibrosis were evaluated by the following parameters: 1) cell infiltration to bronchial alveolar lavage (BAL); BAL were collected at the time of sacrifice and cell number was counted by hematocytometer. The infiltrated cells were differentiated by Wright-Giemsa staining. 2) BAL cytokines (IL-6, and IL-1b) by ELISA). 3) Lung histology by H&E staining and Sirius red staining (fibrosis). Histological samples were evaluated blindly.
# [3] = tested on: murine peritoneal macrophages (PEC); experiment: Dose-response of M1 and M2 gene expression in PEC (RT PCR); format: cell-based, mice
# Protocol: A third group of experiments was performed to investigate the dose-response effects of TMX, its potency as compared to classical inflammatory signals (e.g. LPS) and the activation of selected transcription factors playing an established role in tolerance, as well as in the induction of M1/M2 polarized inflammatory programs. PECs treated for 4 hours or 20 hours with 100 ng/mlof LPS or increased concentrations of TMX or 1V209 were analyzed by RT PCR for the expression of representative M1 (TNFα, IL-12p40) and M2 (IL-10, TGFβ) genes. […] In this experiment, as compared to 1V209, TMX is a lower inducer of M1 genes expression.
# as §1
# Real-Time PCR. Total RNA was purified as previously described. Briefly, reverse transcription from 1 μg of RNA was performed using cDNA Archive kit (Applied Biosystem, NJ, USA). Real time PCR was performed using Power Syber Green PCR Master Mix (Applied Biosystem, NJ, USA) and detected by 7900HT Fast Real-Time System (Applied Biosystem, NJ, USA). Data were processed using the SDS2.2.2 software (Applied Biosystem, NJ, USA). Results were normalized to the expression of the housekeeping gene β-actin and then expressed as folds of upregulation, with respect to the control cell population.
# [4] = Intravenous acute toxicity in mice; format: in vivo; details: i.v.
smiles,measurement,setting,value
COCCOc1nc(N)c2nc(O)n(Cc3ccc(C(=O)NCCOCCOCCOCCOCCOCCOCCn4cc(CCC(=O)O)nn4)cc3)c2n1 [Compound 2],M2 genes expression on re-challenge with different TLR agonists,[1]; PECs pre-treated with TMX,triggered the expression of M2 genes
same,M1 genes expression in response to TLR ligands,[1]; PECs tolerized by 20 hours pre-treatment with 10 μM TMX,inability to up-regulate M1 genes expression
same,cross-tolerance,"[1]; TMX 10 microM, exception CXCL10 following re-challenge with CpG, poly I:C, LPS",observed
same,IL-10 expression following re-challenge of TMX-tolerant macrophages with TNF,[1]; TNF 20 ng/ml,still induced
same,levels of IL-6 and IL-1b cytokines in BAL,[2],under the detection levels of ELISA
same,most potent dose tested for the induction of both M1 and M2 genes,[3]; PEC,30 µM
same,induction of both M1 and M2 gene expression,[3]; PECs treated 4 hours or 20 hours with increased concentrations,dose-dependent induction
same,induction of M1 genes expression as compared to 1V209,"[3]; PECs, 4 or 20 hours",lower inducer
same,dose up to which no toxic clinical signs were produced,[4],up to 1000 mg/kg
